Tests used:
Format in all cases: functional
Conditions in all cases: read-out: IZ
[1] = system: Proteus vulgaris; assay: Antibacterial activity against Proteus vulgaris at 900 ug/ml after overnight incubation
[2] = system: Escherichia coli; assay: Antibacterial activity against Escherichia coli at 600 ug/ml after overnight incubation
[3] = system: Escherichia coli; assay: Antibacterial activity against Escherichia coli at 900 ug/ml after overnight incubation
[4] = system: Proteus vulgaris; assay: Antibacterial activity against Proteus vulgaris at 600 ug/ml after overnight incubation
[5] = system: Colletotrichum falcatum; assay: Antifungal activity against Glomerella tucumanensis at 300 ug/ml after 48 hr
[6] = system: Fusarium oxysporum; assay: Antifungal activity against Fusarium oxysporum at 1200 ug/ml after 48 hr
[7] = system: Fusarium oxysporum; assay: Antifungal activity against Fusarium oxysporum at 900 ug/ml after 48 hr
[8] = system: Fusarium oxysporum; assay: Antifungal activity against Fusarium oxysporum at 600 ug/ml after 48 hr
[9] = system: Fusarium oxysporum; assay: Antifungal activity against Fusarium oxysporum at 300 ug/ml after 48 hr
[10] = system: Candida albicans; assay: Antifungal activity against Candida albicans at 1200 ug/ml after 48 hr
[11] = system: Candida albicans; assay: Antifungal activity against Candida albicans at 900 ug/ml after 48 hr
[12] = system: Candida albicans; assay: Antifungal activity against Candida albicans at 600 ug/ml after 48 hr
[13] = system: Candida albicans; assay: Antifungal activity against Candida albicans at 300 ug/ml after 48 hr
[14] = system: Streptococcus pyogenes; assay: Antibacterial activity against Streptococcus pyogenes at 900 ug/ml after overnight incubation
[15] = system: Streptococcus pyogenes; assay: Antibacterial activity against Streptococcus pyogenes at 600 ug/ml after overnight incubation
[16] = system: Staphylococcus aureus; assay: Antibacterial activity against Staphylococcus aureus at 900 ug/ml after overnight incubation
[17] = system: Staphylococcus aureus; assay: Antibacterial activity against Staphylococcus aureus at 600 ug/ml after overnight incubation
[18] = system: Bacillus pumilus; assay: Antibacterial activity against Bacillus pumilus at 900 ug/ml after overnight incubation
[19] = system: Bacillus pumilus; assay: Antibacterial activity against Bacillus pumilus at 600 ug/ml after overnight incubation
[20] = system: Priestia megaterium; assay: Antibacterial activity against Bacillus megaterium at 900 ug/ml after overnight incubation
[21] = system: Priestia megaterium; assay: Antibacterial activity against Bacillus megaterium at 600 ug/ml after overnight incubation
[22] = system: Bacillus subtilis; assay: Antibacterial activity against Bacillus subtilis at 900 ug/ml after overnight incubation
[23] = system: Bacillus subtilis; assay: Antibacterial activity against Bacillus subtilis at 600 ug/ml after overnight incubation
[24] = system: Klebsiella aerogenes; assay: Antibacterial activity against Enterobacter aerogenes at 900 ug/ml after overnight incubation
[25] = system: Klebsiella aerogenes; assay: Antibacterial activity against Enterobacter aerogenes at 600 ug/ml after overnight incubation
[26] = system: Klebsiella pneumoniae; assay: Antibacterial activity against Klebsiella pneumoniae at 900 ug/ml after overnight incubation
[27] = system: Klebsiella pneumoniae; assay: Antibacterial activity against Klebsiella pneumoniae at 600 ug/ml after overnight incubation
[28] = system: Enterococcus faecalis; assay: Antibacterial activity against Enterococcus faecalis at 900 ug/ml after overnight incubation
[29] = system: Enterococcus faecalis; assay: Antibacterial activity against Enterococcus faecalis at 600 ug/ml after overnight incubation
[30] = system: Exserohilum rostratum; assay: Antifungal activity against Setosphaeria rostrata at 1200 ug/ml after 48 hr
[31] = system: Exserohilum rostratum; assay: Antifungal activity against Setosphaeria rostrata at 900 ug/ml after 48 hr
[32] = system: Exserohilum rostratum; assay: Antifungal activity against Setosphaeria rostrata at 600 ug/ml after 48 hr
[33] = system: Exserohilum rostratum; assay: Antifungal activity against Setosphaeria rostrata at 300 ug/ml after 48 hr
[34] = system: Colletotrichum falcatum; assay: Antifungal activity against Glomerella tucumanensis at 1200 ug/ml after 48 hr
[35] = system: Colletotrichum falcatum; assay: Antifungal activity against Glomerella tucumanensis at 900 ug/ml after 48 hr
[36] = system: Colletotrichum falcatum; assay: Antifungal activity against Glomerella tucumanensis at 600 ug/ml after 48 hr

`Cc1ccc(-c2nnc(CN3CCC(n4nc5ccccc5n4)CC3)o2)cc1Br` showed a zone of inhibition at 900 µg/mL [1] of 10.1 mm, a zone of inhibition at 600 µg/mL [2] of 6.85 mm and a zone of inhibition at 900 µg/mL [3] of 11.1 mm. For the same molecule, the zone of inhibition at 600 µg/mL [4] was 4.85 mm, the zone of inhibition at 300 µg/mL [5] was 4.22 mm and the zone of inhibition at 1200 µg/mL [6] was 26.9 mm. It also gave a zone of inhibition at 900 µg/mL [7] of 13.2 mm, a zone of inhibition at 600 µg/mL [8] of 7.36 mm and a zone of inhibition at 300 µg/mL [9] of 4.21 mm. For the same molecule, the zone of inhibition at 1200 µg/mL [10] was 17.8 mm, the zone of inhibition at 900 µg/mL [11] was 9.26 mm and the zone of inhibition at 600 µg/mL [12] was 5.51 mm. For the same molecule, the zone of inhibition at 300 µg/mL [13] was 3.23 mm, the zone of inhibition at 900 µg/mL [14] was 5.56 mm and the zone of inhibition at 600 µg/mL [15] was 2.25 mm. It also gave a zone of inhibition at 900 µg/mL [16] of 11.2 mm, a zone of inhibition at 600 µg/mL [17] of 5.85 mm and a zone of inhibition at 900 µg/mL [18] of 6.56 mm. The zone of inhibition at 600 µg/mL [19] was 3.32 mm, the zone of inhibition at 900 µg/mL [20] was 9.85 mm and the zone of inhibition at 600 µg/mL [21] was 5.85 mm. For the same molecule, the zone of inhibition at 900 µg/mL [22] was 9.05 mm, the zone of inhibition at 600 µg/mL [23] was 4.25 mm and the zone of inhibition at 900 µg/mL [24] was 7.05 mm. For the same molecule, the zone of inhibition at 600 µg/mL [25] was 3.55 mm, the zone of inhibition at 900 µg/mL [26] was 12.8 mm and the zone of inhibition at 600 µg/mL [27] was 6.02 mm. The zone of inhibition at 900 µg/mL [28] was 5.56 mm, the zone of inhibition at 600 µg/mL [29] was 3.35 mm and the zone of inhibition at 1200 µg/mL [30] was 17.2 mm. The zone of inhibition at 900 µg/mL [31] was 9.86 mm, the zone of inhibition at 600 µg/mL [32] was 5.21 mm and the zone of inhibition at 300 µg/mL [33] was 3.25 mm. For the same molecule, the zone of inhibition at 1200 µg/mL [34] was 25.6 mm, the zone of inhibition at 900 µg/mL [35] was 14 mm and the zone of inhibition at 600 µg/mL [36] was 7.8 mm.
For `CN[C@@H]1[C@H](O[C@H]2[C@H](O[C@H]3[C@H](O)[C@@H](O)[C@H](N=C(N)N)[C@@H](O)[C@@H]3N=C(N)N)O[C@@H](C)[C@]2(O)C=O)O[C@@H](CO)[C@H](O)[C@H]1O` [STREPTOMYCIN], the zone of inhibition at 900 µg/mL [1] was 16.1 mm, the zone of inhibition at 600 µg/mL [2] was 3.06 mm and the zone of inhibition at 900 µg/mL [3] was 6.14 mm. For the same molecule, the zone of inhibition at 600 µg/mL [4] was 8.9 mm, the zone of inhibition at 900 µg/mL [14] was 16.5 mm and the zone of inhibition at 600 µg/mL [15] was 8.91 mm. For the same molecule, the zone of inhibition at 900 µg/mL [16] was 20 mm, the zone of inhibition at 600 µg/mL [17] was 10.3 mm and the zone of inhibition at 900 µg/mL [18] was 14.5 mm. For the same molecule, the zone of inhibition at 600 µg/mL [19] was 7.25 mm, the zone of inhibition at 900 µg/mL [20] was 12.8 mm and the zone of inhibition at 600 µg/mL [21] was 6.23 mm. It also gave a zone of inhibition at 900 µg/mL [22] of 16.2 mm, a zone of inhibition at 600 µg/mL [23] of 8.44 mm and a zone of inhibition at 900 µg/mL [24] of 8.76 mm. It also gave a zone of inhibition at 600 µg/mL [25] of 4.47 mm, a zone of inhibition at 900 µg/mL [26] of 6.54 mm and a zone of inhibition at 600 µg/mL [27] of 3.24 mm. The zone of inhibition at 900 µg/mL [28] was 20.3 mm and the zone of inhibition at 600 µg/mL [29] was 12.8 mm.
In the case of `CCC(C)n1ncn(-c2ccc(N3CCN(c4ccc(OCC5COC(Cn6cncn6)(c6ccc(Cl)cc6Cl)O5)cc4)CC3)cc2)c1=O` (configuration not stated) [ITRACONAZOLE], the zone of inhibition at 300 µg/mL [5] is reported as 4.67 mm, the zone of inhibition at 1200 µg/mL [6] is reported as 39.6 mm and the zone of inhibition at 900 µg/mL [7] is reported as 20 mm. For the same molecule, the zone of inhibition at 600 µg/mL [8] was 10.8 mm, the zone of inhibition at 300 µg/mL [9] was 4.82 mm and the zone of inhibition at 1200 µg/mL [10] was 25.1 mm. For the same molecule, the zone of inhibition at 900 µg/mL [11] was 12 mm, the zone of inhibition at 600 µg/mL [12] was 5.35 mm and the zone of inhibition at 300 µg/mL [13] was 2.62 mm. The zone of inhibition at 1200 µg/mL [30] was 29.6 mm, the zone of inhibition at 900 µg/mL [31] was 14.8 mm and the zone of inhibition at 600 µg/mL [32] was 7.56 mm. The zone of inhibition at 300 µg/mL [33] was 3.58 mm, the zone of inhibition at 1200 µg/mL [34] was 33.4 mm and the zone of inhibition at 900 µg/mL [35] was 18.3 mm. For the same molecule, the zone of inhibition at 600 µg/mL [36] was 9.34 mm.
